Measurements: PubChem BioAssay AID1645864 (Buhrlage Lab, Dana-Farber Cancer Institute and Novartis …, 2021)
Calls of active or inactive are those of the source.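 The calls were made as follows: active = maximal inhibition of USP17 at or above 30% in the confirmation dose-response, a value not among the printed readouts; inactive = the rest.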

What follows are compounds tested against Ubiquitin carboxyl-terminal hydrolase 17-like protein 5 (Homo sapiens) (UniProt A8MUK1) (assay: ubiquitin-specific protease 17 DUB inhibitors, concentration-effect assay, cell-free, verification of initial screening actives (AID 1645864)). Details: purified USP17, ubiquitin-rhodamine cleavage fluorescence, 3 h.
Sequence of Ubiquitin carboxyl-terminal hydrolase 17-like protein 5 (Homo sapiens) (A8MUK1 whole entry, looked up): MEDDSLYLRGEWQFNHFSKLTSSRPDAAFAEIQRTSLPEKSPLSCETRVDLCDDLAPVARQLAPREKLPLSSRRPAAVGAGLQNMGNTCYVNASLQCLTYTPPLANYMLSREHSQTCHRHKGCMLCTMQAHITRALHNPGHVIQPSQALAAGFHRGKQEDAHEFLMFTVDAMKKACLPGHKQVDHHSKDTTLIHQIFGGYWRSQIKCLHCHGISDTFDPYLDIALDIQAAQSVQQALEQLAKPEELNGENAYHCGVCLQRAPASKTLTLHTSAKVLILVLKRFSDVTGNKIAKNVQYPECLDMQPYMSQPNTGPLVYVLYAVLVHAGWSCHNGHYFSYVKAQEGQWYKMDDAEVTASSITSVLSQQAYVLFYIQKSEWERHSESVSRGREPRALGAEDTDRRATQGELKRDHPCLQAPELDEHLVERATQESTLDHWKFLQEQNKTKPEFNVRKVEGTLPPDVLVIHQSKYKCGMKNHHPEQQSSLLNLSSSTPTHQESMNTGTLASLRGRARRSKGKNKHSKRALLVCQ
In the case of `CC1=C(c2ccc(F)cc2)S(=O)(=O)NC1=NCC(=O)Nc1ccc(F)cc1`, the IC50 is reported as 40.6 µM. `COc1ccc(NC(=O)c2ccc(Nc3nnc(C)c4ccccc34)cc2)cc1` was tested, and the IC50 was > 50 µM (inactive). For `Cc1ccc(CSC2=NS(=O)(=O)c3ccccc3N2)cc1`, the IC50 was > 50 µM (inactive). For `COc1ccc(CNC(=O)Nc2cccc3ccccc23)cc1`, the IC50 was 9.93 µM. With `CC(C)(C)C(=O)[C@@H]1[C@@H](C(=O)c2ccc3c(c2)OCO3)[C@@]2(C(=O)Nc3ccccc32)[C@H]2c3ccccc3C=CN12` the IC50 was 31.3 µM. With `CN1C(=O)[C@]23CC4=CC=C[C@H](O)[C@H]4N2C(=O)[C@@]1(CO)SS3` the IC50 was > 50 µM (inactive). `Cc1cc(-c2nnc(SCC(=O)Nc3ccc(Br)c(C)c3)n2N)n[nH]1` showed an IC50 of 18.7 µM. With `O=C(NCc1ccc(F)cc1)N1CCC2(C1)Nc1cccnc1NC2=NCc1ccccc1` (stereo not given) the IC50 was > 50 µM (inactive). `CN(C)c1ccc(C2CC(c3c(O)n(C)c(=O)[nH]c3=O)=Nc3ccccc3S2)cc1` (stereo not given) showed an IC50 of 2.37 µM. With `Cc1c2c(nc3ccccc13)-c1ccccc1CC2` the IC50 was > 50 µM (inactive). `Cc1cc(=O)n(CC(=O)Nc2ccccc2C)c(Nc2ccc(F)cc2)n1` gave an IC50 of 26.8 µM. Work on `COc1ccc(-c2cc3c(=O)n(CC(=O)Nc4ccccc4F)ccn3n2)cc1OC` yielded an IC50 of 3.97 µM. `CCc1noc(-c2ccc(OCC(=O)Nc3ccc(C)cc3C)cc2)n1` was tested, and the IC50 was 30.5 µM. For `COc1ccc(CNC(=O)CN2C(=O)C(C)=C(c3ccc(C)cc3)S2(=O)=O)cc1`, the IC50 was > 50 µM (inactive). With `O=C(O)c1nccnc1C(=O)N1CCc2ccccc2C1` the IC50 was > 50 µM (inactive). In the case of `COc1ccc(COC(=O)C2=C(C)NC(=O)CC2c2cccc([N+](=O)[O-])c2)cc1` (stereo not given), the IC50 is reported as > 50 µM (inactive). `Cc1ccc2[nH]cc(S(=O)(=O)c3ccc(C)c(F)c3)c(=O)c2c1` showed an IC50 of 42.8 µM. `O=C(Nc1ccc(F)cc1F)c1csc(-c2ccccc2)n1` showed an IC50 of 39.2 µM. `COc1cccc(NC(=O)C2CCC(CNS(=O)(=O)c3ccc4c(c3)C(C)(C)C(=O)N4C)CC2)c1` (stereo not given) was tested, and the IC50 was > 50 µM (inactive). In the case of `CCCc1nc2sc3c(NCCCN4CCOCC4)ncnc3c2c2c1CCC2`, the IC50 is reported as > 50 µM (inactive). For `O=C(Cc1cccnc1)Nc1ccc(N2CCN(C3CCCCC3)C2=O)nc1`, the IC50 was > 50 µM (inactive). With `CS(=O)(=O)N1CCCc2cc(C(=O)Nc3ccc4c(c3)OCO4)ccc21` the IC50 was > 50 µM (inactive). Work on `O=C(NCc1ccc(F)cc1)c1cc(-n2cnnn2)ccc1Cl` yielded an IC50 of 25.4 µM. With `Oc1sc(C=Nc2cc(Cl)ccc2Cl)c2ccccc12` the IC50 was 1.46 µM. With `N#Cc1cccc(NC(=O)Cn2cccc(-c3nc(-c4ccccc4)no3)c2=O)c1` the IC50 was > 50 µM (inactive). In the case of `CCN(C(=O)c1cc2c(Cl)nc3ccccc3c2s1)c1ccccc1F`, the IC50 is reported as 16.1 µM. Compound `Cc1ccc(S(=O)(=O)c2cnc(SCC(=O)Nc3ccc(Cl)cc3)nc2N)cc1C` has an IC50 of 29.8 µM. `Cc1ccc2c(=O)c3c([nH]c2c1C)CCN(CC(=O)NCc1ccccc1)C3` was tested, and the IC50 was > 50 µM (inactive). In the case of `COc1cccc(NC(=O)C2C3C=CC4(O3)C2C(=O)N(CCc2ccccc2Cl)C4C(=O)NC2CCCCC2)c1` (stereo not given), the IC50 is reported as 28.2 µM. In the case of `CCc1ccccc1NC(=O)COc1ccccc1-c1nnc(-c2ccccc2)o1`, the IC50 is reported as 25 µM. Work on `COc1cccc(NC(=O)CSc2nnc(-c3cc4cccc(OC)c4o3)n2C)c1` yielded an IC50 of 11.9 µM. In the case of `CCCCn1c(=O)c(CCC(=O)OCC(=O)Nc2ccc3c(c2)OCCO3)nc2ccccc21`, the IC50 is reported as > 5 µM (inactive). For `O=C(CSc1ncnc2c1oc1ccccc12)Nc1ccc2c(c1)OCCO2`, the IC50 was 29 µM. With `CS(=O)(=O)N1CCc2cc(C(=O)Nc3ccc(Cc4ccncc4)cc3)ccc21` the IC50 was > 50 µM (inactive). For `Cc1nn(CC(=O)NCc2ccccc2F)c2ccccc12`, the IC50 was 47 µM. Work on `COc1c(O)c(O)c2c(=O)cc(-c3ccc(O)cc3)oc2c1OC` yielded an IC50 of 38.5 µM. With `NC(=O)CCC(=O)N[C@H]1C[C@H]2CN(Cc3ccccc3)c3ccccc3CN2C1` the IC50 was > 50 µM (inactive). With `COc1ccc2c(c1)c(N1CCCC1=O)c(C(=O)NCc1cccc(OC)c1OC)n2C` the IC50 was > 50 µM (inactive). Compound `O=C(Nc1ccccc1-c1nc2ccccc2[nH]1)c1sc2ccccc2c1Cl` has an IC50 of 1.8 µM. With `CC(=O)Nc1cc2cc(-n3cccc3)ccc2oc1=O` the IC50 was 3.83 µM.
